Data: patent US11366116B1, “Real time autonomous surveillance of pathogens” (priority 2017, dated 2022)

Tested on: Culex tarsalis mosquitoes
Experiment: Observation of mosquitoes feeding upon scented, spun (cotton candy) baits
Format: in vivo
Details: for Number of mosquitos observed feeding each scent: scented spun cotton candy bait
Source text: One strategy for a solid bait that we tested was a “cotton candy” or spun sugar bait (FIG. 11). The cotton candy could be pressed into the feeding well, over and on top of a dried enzyme pellet and a ball bearing for magnetic mixing. We anticipated this would allow a large surface area for mosquitoes to feed, as well as dissolve instantly upon adding a drop of rehydration buffer. Plain cotton candy made from pure sucrose turned out to be unstable upon storage for more than a few days, and we subsequently devised a way to modify the cotton candy by melting a polymer (PEG) with the sugar prior to spinning, to stabilize it against shriveling in ambient humidity. […] Based on this experiment (Table 1), we determined that both honey and plumeria could be used as attractants for sugar-feeding Culex tarsalis mosquitoes.

O=CCc1ccccc1 [Phenylacetaldehyde]
Number of mosquitos observed feeding each scent (Day 0): 0
Number of mosquitos observed feeding each scent (Day 1): 5
Number of mosquitos observed feeding each scent (Day 2): 1
Number of mosquitos observed feeding each scent (Day 3): 4
Number of mosquitos observed feeding each scent (Day 4): 3
Number of mosquitos observed feeding each scent, Sum (Sum of Day 0 to Day 4): 13
